In patent US7344829B2, “Methods for detecting the efficacy of anticancer treatments” (Board of Regents, the University of Texas System, priority 2000, dated 2008):
Marks after values point to notes of the source that are not given here.

Tests used:
EGF-R = biological target: T1, EGF-R (Homo sapiens, UniProt P00533); assay: Western blot analysis of EGF-R autophosphorylation in L3.6pl cells; type: cell-based; settings: concentration of 10 μM (data not shown)
T1 construct: endogenous in cells; host or cells: L3.6pl human pancreatic cancer cells
Experimental: Western Blot Analysis of EGF-R Autophosphorylation following Treatment with PKI166. […] without 40 ng/ml rhEGF for 10 min, washed, and scraped into PBS containing 5 mM EDTA and 1 mM Na Orthovanadate, and centrifuged, and the pellet resuspended in lysis buffer (20 mM Tris-HCl, pH 8.0, 137 mM NaCl, 10% glycerol, 2 mM EDTA, 1 mM phenylmethylsulfonyl fluoride, 20 μM leupeptin, and 0.15 U/ml aprotinin) sonicated, and centrifuged to recover […] protein. Immunoprecipitation was performed using Mab anti-EGF-R (clone EGF-RI) as described previously (Perrotte et al. 1999; Parker et al. 1998). Immunoprecipitates were analyzed on 7.5% NaDodSO4-PAGE and transferred onto 0.45-μm nitrocellulose membranes. The filters were blocked with 3% bovine serum albumin in TDS (20 mM Tris-HCl, pH 7.5, 150 mM NaCl), probed with either polyclonal sheep anti-human EGF-R (1:1000) or monoclonal anti-phosphotyrosine (Mab 4G10) (1:2000) in TTBS (0.1% Tween 20 in TBS), and incubated with horseradish peroxidase-conjugated donkey anti-sheep IgG (1:2000) (Sigma Immunochemicals, St. Louis, Mo.) or sheep anti-mouse IgG (1:2000), respectively, in TTBS. Protein bands were visualized by ECL detection system. For an additional experiment, serum-starved L3.6pl cells were treated with gemcitabine (10 nM) with or without PKI166 (0.05, 0.5 μM) for 1 h, and then incubated with or without rhEGF (40 ng/ml) for 10 min. […]

[1] = tested on: L3.6pl human pancreatic cancer cells; assay: Immunohistochemical analysis of human pancreatic carcinoma in the pancreas of treated nude mice; type: in vivo; settings: for PCNA+ tumor cells / TUNEL+ tumor cells: mean ± SD, 10 random 0.159-mm^2 fields at ×100; for CD (CD31, tumor MVD per field): staining with antibodies against CD31
Source text: Immunohistochemical (IHC) Determination of VEGF, IL-8, PCNA, CD31/PECAM-1, and EGF-R. Paraffin-embedded tissues were used for identification of VEGF, IL-8, EGF-R, and proliferating cell nuclear antigen (PCNA). Sections (4–6 μm thick) were mounted on positively-charged Superfrost slides (Fisher Scientific, Co., Houston, Tex.) and dried overnight. Sections were deparaffinized in xylene followed by treatment with a graded series of alcohol (100%, 95%, 80% ethanol/ddH2O [v/v]) and rehydrated in PBS, pH 7.5. Sections analyzed for PCNA were microwaved 5 min for “antigen retrieval” (Shi et al. 1991). All other paraffin-embedded tissues were treated with pepsin (Biomeda) for 15 min at 37° C. and washed with PBS. Frozen tissues used for identification of CD31/PECAM-1, and activated EGF-R were sectioned (8–10 μm), mounted on positively charged Plus slides (Fisher Scientific), and air-dried for 30 min. Frozen sections were fixed in cold acetone (5 min), acetone/chloroform (v/v) (5 min), and acetone (5 min) and washed with PBS. Immunohistochemical procedures were performed as described previously (Rak et al. 1996). Positive reaction was visualized by incubating the slides with stable 3,3′-diaminobenzidine (DAB) for 10–20 min or 3-amino-9-ethylcarbazole (AEC) after CD31 staining. The sections were rinsed with distilled water, counterstained with Gill's hematoxylin for 1 min, and mounted with Universal Mount (Research Genetics). […] Sections analyzed for activated EGF-R were pretreated with goat anti-mouse IgG F(ab)2 fragment (1:10 dilution in PBS) for 4–6 h before incubation with the primary antibody. The positive reaction following staining for activated EGF-R was enhanced with osmium tetraoxide (4% aqueous solution) at a 1:1000 dilution in ddH2O after incubation with DAB.
Immunofluorescence Double Staining for CD31/PECAM-1 (Endothelial Cells) and TUNEL (Apoptotic Cells). Frozen tissues were sectioned (8–10 μm), mounted on positively charged slides, air-dried for 30 min, and fixed in cold acetone for 5 min, acetone+chloroform (1:1) for 5 min, and acetone for 5 min. Samples were washed 3 times with PBS, incubated with protein-blocking solution containing 5% normal horse serum and 1% normal goat serum in PBS for 20 min at room temperature, and incubated with the appropriate dilution (1:400) of rat monoclonal anti-mouse CD31 antibody (human cross-reactive) over 18 h at 4° C. After the samples were rinsed 4 times for 3 min each with PBS, the slides were incubated with the appropriate dilution (1:200) of secondary goat anti-rat conjugated to Texas Red for 1 h at room temperature in the dark. Samples were washed twice with PBS containing 0.1% Brij and washed with PBS for 5 min.
TUNEL was performed using a commercially available apoptosis detection kit with the following modifications: samples were fixed with 4% paraformaldehyde (methanol-free) for 10 min at room temperature, washed twice with PBS for 5 min, and then incubated with 0.2% Triton X-100 for 15 min at room temperature. After two washes of 5 min each with PBS, the samples were incubated with equilibration buffer (from kit) for 10 min at room temperature. The equilibration buffer was drained, and reaction buffer containing equilibration buffer, nucleotide mix, and TdT enzyme was added to the tissue sections and incubated in a humid atmosphere at 37° C. for 1 h in the dark. The reaction was terminated by immersing the samples in 2×SSC for 15 min. Samples were washed 3 times for 5 min to remove unincorporated fluorescein-dUTP. For quantification of […], the samples were incubated with 300 μg/ml of Hoechst stain for 10 min at room temperature. Fluorescent bleaching was minimized by treating slides with an enhancing reagent (Prolong solution). […]

[2] = tested on: L3.6pl human pancreatic cancer cells
Source text: Animals and Orthotopic Implantation of Tumor Cells. Male athymic nude mice (NCr-nu) were purchased from the Animal Production Area of the National Cancer Institute-Frederick Cancer Research and Development Center (Frederick, Md.). The mice were housed and maintained in laminar flow cabinets under specific pathogen-free conditions in facilities approved by the American Association for Accreditation of Laboratory Animal Care and in accordance with current regulations and standards of the U. S. Department of Agriculture, U.S. Department of Health and Human Services, and the National Institutes of Health. The mice were used in accordance with institutional guidelines when they were 8 to 12 wk old.
Orthotopic Implantation of Tumor Cells. To produce tumors, L3.6pl cells were harvested from subconfluent cultures by a brief exposure to 0.25% trypsin and 0.02% EDTA. Trypsinization was stopped with medium containing 10% FBS, and the cells were washed once in serum-free medium and resuspended in HBSS. Only suspensions consisting of single cells with greater than 90% viability were used for the injections. Cells were injected into the pancreas as described previously. The mice were killed when moribund (5–6 wk). The size and weight of the primary pancreatic tumors, the incidence of regional (celiac and paraaortal) lymph node metastasis, and the number of liver metastases were recorded. Histopathology confirmed the nature of the disease.
Therapy of Established Human Pancreatic Carcinoma Tumors Growing in the Pancreas of Athymic Nude Mice. Seven days after implantation of tumor cells into the pancreas, 5 mice were killed and the presence of tumor lesions was determined. At this time, the median tumor volume was 18 mm^3. Histological examination confirmed the lesions to be actively growing pancreatic cancer.
Necropsy Procedures and Histological Studies. Mice were euthanized and the body weight was determined. Primary tumors in the pancreas were excised and weighed. […] Visible liver metastases were counted with the aid of a dissecting microscope and processed for H&E staining. All macroscopically enlarged regional (celiac and paraaortal) lymph nodes were harvested, and the presence of metastatic disease was confirmed by histology.

VEGF = assay: In vitro expression of VEGF by L3.6pl cells (ELISA); type: cell-based, human; settings: 72 h, 1 μM PKI166 or 10 nM gemcitabine, control 1400 pg/ml
Experimental: (§1) In vitro Expression of VEGF and IL-8. L3.6pl cells (2000 cells/38 mm^2 well) were plated into 96-well plates in 200 μl supplemented DMEM containing 5% FBS for 24 h, and then treated with 0.05, 0.5, or 1 μM PKI166. Supplemented DMEM (5% FBS) and human IgG (10 μg/ml) served as controls. Seventy-two hours later, the culture supernatants were collected, and the level of VEGF and IL-8 proteins (corrected for cell number) were determined by Quantikine ELISA kits.

IL-8 = assay: In vitro expression of IL-8 by L3.6pl cells (ELISA); type: cell-based, human; settings: 72 h, 1 μM PKI166 or 10 nM gemcitabine, control 1440 pg/ml
Experimental: as §1

L3.6pl cells = assay: In vitro cytotoxicity assay (MTT); type: cell-based; settings: Homo sapiens, 144 h, 6 days
Experimental: In Vitro Cytotoxicity Assay. In all assays, 700–1000 tumor cells were seeded into 38-mm^2 wells of flat-bottomed 96-well plates in quadruplicate and allowed to adhere overnight. The cultures were then washed and refed with medium (negative control) or medium containing PKI166 with or without gemcitabine. […] Following a 2–4 h incubation in medium containing 0.42 mg/ml of MTT, the cells were lysed in DMSO. The conversion of MTT to formazan by metabolically viable cells was monitored by an MR-5000 96-well microtiter plate reader at 570 nm (Dynatech, Inc., Chantilly, Va.). Growth inhibition was calculated from the formula: Cytostasis (%)=[1−(A/B)]×100, where A is the absorbance of treated cells and B is the absorbance of the control cells.

[3] = tested on: L3.6pl human pancreatic cancer cells; assay: Preliminary gemcitabine dose-response experiment in nude mice with pancreatic tumors; type: in vivo; settings: gemcitabine 250 mg/kg and 500 mg/kg compared to 125 mg/kg (data not shown)
Experimental: To evaluate the therapeutic effect of gemcitabine in this animal model, a preliminary dose-response experiment was performed. […] All mice were killed on day 35. The volume of tumors and incidence of metastasis were determined.

[4] = mean ± SD absorbance, ratio of tumor cell to normal pancreatic gland expression ×100, day 35

T1 sequence (P00533 25-1210): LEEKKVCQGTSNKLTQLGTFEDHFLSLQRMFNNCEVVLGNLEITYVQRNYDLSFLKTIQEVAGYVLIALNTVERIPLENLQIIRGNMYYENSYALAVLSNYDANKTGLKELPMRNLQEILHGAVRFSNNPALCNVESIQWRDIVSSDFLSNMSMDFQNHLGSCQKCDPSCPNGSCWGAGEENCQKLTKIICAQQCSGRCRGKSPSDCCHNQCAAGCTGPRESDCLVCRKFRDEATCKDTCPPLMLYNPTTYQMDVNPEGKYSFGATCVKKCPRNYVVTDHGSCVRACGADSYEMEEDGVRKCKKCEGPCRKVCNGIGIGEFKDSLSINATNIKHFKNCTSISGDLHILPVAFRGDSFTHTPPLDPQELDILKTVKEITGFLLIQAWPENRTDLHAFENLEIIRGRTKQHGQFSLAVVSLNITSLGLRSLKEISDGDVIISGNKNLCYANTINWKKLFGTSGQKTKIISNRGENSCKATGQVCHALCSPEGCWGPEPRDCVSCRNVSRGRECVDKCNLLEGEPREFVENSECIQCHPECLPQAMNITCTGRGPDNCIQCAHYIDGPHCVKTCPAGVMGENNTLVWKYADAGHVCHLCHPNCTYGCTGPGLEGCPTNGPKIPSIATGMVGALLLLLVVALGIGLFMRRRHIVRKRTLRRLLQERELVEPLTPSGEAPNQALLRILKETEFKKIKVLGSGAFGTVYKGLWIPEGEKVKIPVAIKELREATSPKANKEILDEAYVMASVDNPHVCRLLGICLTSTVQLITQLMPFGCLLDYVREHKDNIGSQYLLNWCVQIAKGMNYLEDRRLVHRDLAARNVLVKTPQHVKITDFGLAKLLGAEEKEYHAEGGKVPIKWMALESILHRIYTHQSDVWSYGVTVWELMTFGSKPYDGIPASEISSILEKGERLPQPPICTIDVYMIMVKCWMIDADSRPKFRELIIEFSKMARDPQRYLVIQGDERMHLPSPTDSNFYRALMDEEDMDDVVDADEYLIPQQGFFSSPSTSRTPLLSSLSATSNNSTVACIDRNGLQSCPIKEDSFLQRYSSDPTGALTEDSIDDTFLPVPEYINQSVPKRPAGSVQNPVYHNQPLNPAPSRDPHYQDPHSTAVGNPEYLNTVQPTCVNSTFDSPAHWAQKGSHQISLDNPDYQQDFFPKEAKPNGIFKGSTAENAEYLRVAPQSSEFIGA

SMILES: Nc1ccn([C@@H]2O[C@H](CO)[C@@H](O)C2(F)F)c(=O)n1 [gemcitabine]
- Effect on autophosphorylation of EGF-R (EGF-R): did not affect
- ratio of PCNA-positive over TUNEL-positive cells ([1]; calculated): 1.1
- Staining of pancreatic tumors for activated (phosphorylated) EGF-R ([1]; immunohistochemistry of tumors from treated nude mice): stained positive
- IL-8 [1, 4]: 299 ± 43
- VEGF [1, 4]: 298 ± 54
- PCNA+ tumor cells ([1]; day 35): 237±66 positive cells/field
- TUNEL+ tumor cells ([1]; day 35): 225±95 positive cells/field
- PCNA+ tumor cells ([1]; day 35, listed as Gemcitabine): 237 ± 66 positive cells/field
- TUNEL+ tumor cells ([1]; day 35, listed as Gemcitabine): 225 ± 95^e positive cells/field
- CD (CD31, tumor MVD per field) ([1]; day 35): 52±18
- CD (CD31, tumor MVD per field) ([1]; day 35, listed as Gemcitabine): 52
- Histologically positive regional lymph node metastases, share of animals ([2]; day 35): 90%
- Reduction of growth of primary pancreatic neoplasms ([2]; human pancreatic carcinoma in pancreas of nude mice): 45%
- VEGF in culture supernatant (VEGF): 1280 pg/mL
- IL-8 in culture supernatant (IL-8): 2000 pg/mL
- IC50 (L3.6pl cells; gemcitabine alone): 0.88 µM
- IC50 (L3.6pl cells; in the presence of PKI166 (0.03 μM)): 0.52 µM
- Effect of increasing the dose on pancreatic tumor growth and metastasis [3]: did not further reduce
